target: T1, human recombinant GPR65 (Homo sapiens, UniProt Q8IYL9); test: Human GPR65 cAMP HTRF antagonist assay; format: cell-based; conditions: not given
T1 construct: host or cells: 1321N1 human astrocytoma cells (1321N1-hrGPR65)
In short: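 1321N1 astrocytoma cells stably expressing GPR65 were preincubated with compound for 30 min at room temperature in KRH pH 7.6 with 1 mM IBMX and 200 μM EDTA. They were then stimulated at assay pH 7.2 for 30 min, with controls at pH 7.9. cAMP was read by HTRF (665/620 nm), normalised to controls and fitted by 4-parameter logistic to give IC50.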

T1 sequence (Q8IYL9 whole entry): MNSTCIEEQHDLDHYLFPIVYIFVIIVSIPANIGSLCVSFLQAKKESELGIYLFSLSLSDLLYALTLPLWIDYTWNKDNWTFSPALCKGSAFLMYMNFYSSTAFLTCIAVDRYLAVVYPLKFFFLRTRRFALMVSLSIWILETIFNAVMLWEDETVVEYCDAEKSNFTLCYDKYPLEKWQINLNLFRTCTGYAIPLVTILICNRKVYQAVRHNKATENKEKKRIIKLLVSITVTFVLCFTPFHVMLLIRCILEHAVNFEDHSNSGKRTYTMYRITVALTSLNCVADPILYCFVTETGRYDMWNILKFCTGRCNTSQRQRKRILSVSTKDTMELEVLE

How did the IC50 turn out when `O=C(Nc1ccc(Cl)c(Cl)c1)N1[C@H]2CC[C@@H]1c1cncnc1C2` [Compound 52, (5R,8S)-N-(3,4-Dichlorophenyl)-6,7,8,9-tetrahydro-5H-5,8-epiminocyclohepta[d]pyrimidine-10-carboxamide] was run?
The IC50 was < 0.5 µM.

With `O=C(Nc1ccc(Cl)c(Cl)c1)N1[C@H]2CC[C@@H]1c1ccnc(F)c1C2` [Compound 78, (5R,8S)-N-(3,4-Dichlorophenyl)-1-fluoro-6,7,8,9-tetrahydro-5H-5,8-epiminocyclohepta[c]pyridine-10-carboxamide] as the compound, how does the IC50 read?
Its IC50 is < 0.5 µM.

Which IC50 does the source give for `O=C(Nc1cc(Cl)c(Cl)cc1F)N1[C@H]2CC[C@@H]1c1ccnc(F)c1C2` [Compound 79, (5R,8S)-N-(4,5-Dichlroo-2-fluorophenyl)-1-fluoro-6,7,8,9-tetrahydro-5H-5,8-epiminocyclohepta[c]pyridine-10-carboxamide] here?
Its IC50 is < 0.5 µM.

For `O=C(Nc1ccc(C(F)(F)F)c(Cl)c1)N1[C@H]2CC[C@@H]1c1ccnc(F)c1C2` [Compound 85, (5R,8S)-N-(3-Chloro-4-(trifluoromethyl)phenyl)-1-fluoro-6,7,8,9-tetrahydro-5H-5,8-epiminocyclohepta[c]pyridine-10-carboxamide], which IC50 is on record?
Its IC50 is < 0.5 µM.

How did the IC50 turn out when `N#Cc1cc(Cl)c(Cl)cc1NC(=O)N1[C@H]2CC[C@@H]1c1c[nH]c(=O)cc1C2` [Compound 88, (6S,9R)-N-(4,5-Dichloro-2-cyanophenyl)-3-oxo-3,5,6,7,8,9-hexahydro-2H-6,9-epiminocyclohepta[c]pyridine-10-carboxamide] was run?
The IC50 was < 0.5 µM.

`O=C(Nc1ccc(Cl)c(Cl)c1)N1[C@H]2CC[C@@H]1c1cnc(F)cc1C2` [Compound 91, (6S,9R)-N-(3,4-Dichlorophenyl)-3-fluoro-6,7,8,9-tetrahydro-5H-6.9-epiminocyclohepta[c]pyridine-10-carboxamide] was tested. Which IC50 did it give?
The IC50 was < 0.5 µM.

Which IC50 does the source give for `O=C(Nc1ccc(Cl)c(Cl)c1)N1[C@H]2CC[C@@H]1c1cc[n+]([O-])cc1C2` [Compound 92] here?
The IC50 was < 0.5 µM.

How did the IC50 turn out when `O=C(Nc1cc(Cl)c(C(F)(F)F)cc1F)N1[C@H]2CC[C@@H]1c1c[nH]c(=O)cc1C2` [Compound 93, (6S,9R)-N-(5-Chloro-2-fluoro-4-(trifluoromethyl)phenyl)-3-oxo-3,5,6,7,8,9-hexahydro-2H-6,9-epiminocyclohepta[c]pyridine-10-carboxamide] was run?
Its IC50 is < 0.5 µM.

How did the IC50 turn out when `O=C(Nc1cc(Cl)c(Cl)cc1F)N1[C@H]2CC[C@@H]1c1c[nH]c(=O)cc1C2` [Compound 94, (6S,9R)-N-(4,5-Dichloro-2-fluorophenyl)-3-oxo-3,5,6,7,8,9-hexahydro-2H-6,9-epiminocyclohepta[c]pyridine-10-carboxamide] was run?
Its IC50 is < 0.5 µM.

How did the IC50 turn out when `N#Cc1cc(Cl)c(Cl)cc1NC(=O)N1[C@H]2CC[C@@H]1c1ccnc(F)c1C2` [Compound 98, (5R,8S)-N-(4,5-Dichloro-2-cyanophenyl)-1-fluoro-6,7,8,9-tetrahydro-5H-5,8-epiminocyclohepta[c]pyridine-10-carboxamide] was run?
The IC50 was < 0.5 µM.

`O=C(Nc1cc(Cl)c(C(F)(F)F)cc1F)N1[C@H]2CC[C@@H]1c1ccnc(F)c1C2` [Compound 101, (5R,8S)-N-(5-Chloro-2-fluoro-4-(trifluoromethyl)phenyl)-1-fluoro-6,7,8,9-tetrahydro-5H-5.8-epiminocyclohepta[c]pyridine-10-carboxamide] was tested. Which IC50 did it give?
The IC50 was < 0.5 µM.

Which IC50 does the source give for `O=C(Nc1ccc(Cl)c(Cl)c1)N1[C@H]2CC[C@@H]1c1c[nH]c(=O)cc1C2` [Compound 103, (6S,9R)-N-(3,4-Dichlorophenyl)-3-oxo-3,5,6,7,8,9-hexahydro-2H-6,9-epiminocyclohepta[c]pyridine-10-carboxamide] here?
The IC50 was < 0.5 µM.

Which IC50 does the source give for `O=C(Nc1ccc(Cl)c(Cl)c1)N1[C@H]2CC[C@@H]1c1c[nH]c(=O)nc1C2` [Compound 106, (5R,8S)-N-(3,4-Dichlorophenyl)-2-oxo-3,5,6,7,8,9-hexahydro-2H-5,8-epiminocyclohepta[d]pyrimidine-10-carboxamide] here?
Its IC50 is < 0.5 µM.

For `O=C(Nc1ccc(Cl)c(Cl)c1)N1[C@H]2CC[C@@H]1c1ccncc1C2` [Compound 108, (5R,8S)-N-(3,4-Dichlorophenyl)-6,7,8,9-tetrahydro-5H-5,8-epiminocyclohepta[c]pyridine-10-carboxamide], which IC50 is on record?
Its IC50 is < 0.5 µM.

With `Cc1cc(Cl)c(Cl)cc1NC(=O)N1[C@H]2CC[C@@H]1c1ccnc(F)c1C2` [Compound 117, (5R,8S)-N-(4,5-Dichloro-2-methylphenyl)-1-fluoro-6,7,8,9-tetrahydro-5H-5,8-epiminocyclohepta[c]pyridine-10-carboxamide] as the compound, how does the IC50 read?
The IC50 was < 0.5 µM.

How did the IC50 turn out when `O=C(Nc1cc(C(F)(F)F)ccc1F)N1[C@H]2CC[C@@H]1c1ccnc(F)c1C2` [Compound 119, (5R,8S)-1-Fluoro-N-(2-fluoro-5-(trifluoromethyl)phenyl)-6,7,8,9-tetrahydro-5H-5,8-epiminocyclohepta[c]pyridine-10-carboxamide] was run?
Its IC50 is < 0.5 µM.

Which IC50 does the source give for `O=C(Nc1ccc(C(F)(F)F)cc1F)N1[C@H]2CC[C@@H]1c1ccnc(F)c1C2` [Compound 120, (5R,8S)-1-Fluoro-N-(2-fluoro-4-(trifluoromethyl)phenyl)-6,7,8,9-tetrahydro-5H-5,8-epiminocyclohepta[c]pyridine-10-carboxamide] here?
The IC50 was < 0.5 µM.

How did the IC50 turn out when `COC(=O)c1ccc(NC(=O)N2[C@H]3CC[C@@H]2c2ccnc(F)c2C3)cc1Cl` [Compound 122, Methyl 2-chloro-4-((5R,8S)-1-fluoro-6,7,8,9-tetrahydro-5H-5,8-epiminocyclohepta[c]pyridine-10-carboxamido)benzoate] was run?
The IC50 was < 0.5 µM.

How did the IC50 turn out when `COC(=O)c1cc(NC(=O)N2[C@H]3CC[C@@H]2c2ccnc(F)c2C3)ccc1Cl` [Compound 123, Methyl 2-chloro-5-((5R,8S)-1-fluoro-6,7,8,9-tetrahydro-5H-5,8-epiminocyclohepta[c]pyridine-10-carboxamido)benzoate] was run?
The IC50 was < 0.5 µM.

How did the IC50 turn out when `O=C(Nc1ccc(OC(F)(F)F)c(Cl)c1)N1[C@H]2CC[C@@H]1c1ccnc(F)c1C2` [Compound 124, (5R,8S)-N-(3-Chloro-4-(trifluoromethoxy)phenyl)-1-fluoro-6,7,8,9-tetrahydro-5H-5,8-epiminocyclohepta[c]pyridine-10-carboxamide] was run?
The IC50 was < 0.5 µM.

Which IC50 does the source give for `COC(=O)c1cc(NC(=O)N2[C@H]3CC[C@@H]2c2ccnc(F)c2C3)c(F)cc1Cl` [Compound 125, Methyl 2-chloro-4-fluoro-5-((5R,8S)-1-fluoro-6,7,8,9-tetrahydro-5H-5,8-epiminocyclohepta[c]pyridine-10-carboxamido)benzoate] here?
Its IC50 is < 0.5 µM.

How did the IC50 turn out when `O=C(Nc1cc(C(F)(F)F)c(Cl)cc1F)N1[C@H]2CC[C@@H]1c1ccnc(F)c1C2` [Compound 126, (5R,8S)-N-(4-Chloro-2-fluoro-5-(trifluoromethyl)phenyl)-1-fluoro-6,7,8,9-tetrahydro-5H-5,8-epiminocyclohepta[c]pyridine-10-carboxamide] was run?
The IC50 was < 0.5 µM.

same assay, conditions: 1321N1-hrGPR65 cells, assay pH 7.2, cAMP HTRF; read-out: hGPR65 IC50 (activity class)

For `O=C(Nc1ccc(C(F)(F)F)c(Cl)c1)N1[C@@H]2CC[C@H]1c1c[nH]c(=O)nc1C2` [Compound 44, (5S,8R)-N-(3-Chloro-4-(trifluoromethyl)phenyl)-2-oxo-3,5,6,7,8,9-hexahydro-2H-5,8-epiminocyclohepta[d]pyrimidine-10-carboxamide], which IC50 is on record?
Its IC50 is > 5 µM.

For `O=C(Nc1ccc(Cl)c(Cl)c1)N1[C@@H]2CC[C@H]1c1cncnc1C2` [Compound 53, (5S,8R)-N-(3,4-Dichlorophenyl)-6,7,8,9-tetrahydro-5H-5,8-epiminocyclohepta[d]pyrimidine-10-carboxamide], which IC50 is on record?
Its IC50 is > 5 µM.

Which IC50 does the source give for `COc1cc2c(cn1)[C@H]1CC[C@@H](C2)N1C(=O)Nc1ccc(Cl)c(Cl)c1` [Compound 86, (6S,9R)-N-(3,4-Dichlorophenyl)-3-methoxy-6,7,8,9-tetrahydro-5H-6,9-epiminocyclohepta[c]pyridine-10-carboxamide] here?
The IC50 was > 5 µM.

Which IC50 does the source give for `O=C(Nc1ccc(Cl)c(Cl)c1)N1[C@@H]2CC[C@H]1c1c[nH]c(=O)nc1C2` [Compound 105, (5S,8R)-N-(3,4-Dichlorophenyl)-2-oxo-3,5,6,7,8,9-hexahydro-2H-5,8-epiminocyclohepta[d]pyrimidine-10-carboxamide] here?
Its IC50 is > 5 µM.

`O=C(Nc1ccc(Cl)c(Cl)c1)N1[C@@H]2CC[C@H]1c1ccncc1C2` [Compound 107, (5S,8R)-N-(3,4-Dichlorophenyl)-6,7,8,9-tetrahydro-5H-5,8-epiminocyclohepta[c]pyridine-10-carboxamide] was tested. Which IC50 did it give?
Its IC50 is > 5 µM.

Which IC50 does the source give for `O=C(Nc1ccc(Cl)c(Cl)c1)N1[C@@H]2CC[C@H]1c1ccnc(F)c1C2` [Compound 110, (5S,8R)-N-(3,4-Dichlorophenyl)-1-fluoro-6,7,8,9-tetrahydro-5H-5,8-epiminocyclohepta[c]pyridine-10-carboxamide] here?
The IC50 was > 5 µM.

For `O=C(Nc1ccc(Cl)c(Cl)c1)N1[C@H]2CC[C@@H]1c1cnccc1C2` [Compound 111, (6S,9R)-N-(3,4-Dichlorophenyl)-6,7,8,9-tetrahydro-5H-6,9-epiminocycloheptan[c]pyridine-10-carboxamide], which IC50 is on record?
Its IC50 is 0.5 to 5 µM.

`O=C(Nc1ccc(Cl)c(Cl)c1)N1[C@@H]2CC[C@H]1c1cnccc1C2` [Compound 112, (6R,9S)-N-(3,4-Dichlorophenyl)-6,7,8,9-tetrahydro-5H-6,9-epiminocyclohepta[c]pyridine-10-carboxamide] was tested. Which IC50 did it give?
Its IC50 is > 5 µM.

With `O=C(Nc1ccc(Cl)c(Cl)c1)N1[C@@H]2CC[C@H]1[C@H](F)c1ncncc12` [Compound 115, (5R,8S,9S)-N-(3,4-Dichlorophenyl)-9-fluoro-6,7,8,9-tetrahydro-5H-5,8-epiminocyclohepta[d]pyrimidine-10-carboxamide] as the compound, how does the IC50 read?
Its IC50 is 0.5 to 5 µM.

For `COc1cc(Cl)c(Cl)cc1NC(=O)N1[C@H]2CC[C@@H]1c1ccnc(F)c1C2` [Compound 118, (5R,8S)—N-(4,5-dichloro-2-methoxyphenyl)-1-fluoro-6,7,8,9-tetrahydro-5H-5,8-epiminocyclohepta[c]pyridine-10-carboxamide], which IC50 is on record?
The IC50 was 0.5 to 5 µM.

— patent US20230373989A1, “N-PHENYLAMINOCARBONYL PYRIDINO-, PYRIMIDINO AND BENZO-TROPANES AS MODULATORS OF GPR65” (PATHIOS THERAPEUTICS LIMITED, priority 2020, published 2023)
